# From EP0696280B1, “SUBSTITUTED PYRROLIDIN-3-YL-ALKYL-PIPERIDINES USEFUL AS TACHYKININ ANTAGONISTS” (MERRELL PHARMACEUTICALS INC., priority 1993, dated 1994)
# Where a name gives a salt, the structure may show the parent alone.
# How the values were obtained:
# [1] = system: SP-induced plasma protein extravasation; experiment: Antagonism of SP-induced plasma protein extravasation in guinea pig trachea (Evans Blue dye); type: in vivo; conditions: Figure 2; i.v.; result in words
# Method: SP-induced protein leakage through postcapillary venules was assessed by measuring Evans Blue dye accumulation in guinea pig trachea. Animals were anesthetized with pentobarbital then injected with Evans Blue dye (20 mg/kg, i.v., prepared in 0.9% NaCl solution). One minute after dye administration, the antagonist was administered (i.v.) followed by SP (0.3 nmole/kg, i.v.) and, after 5 min, excess dye removed from the circulation by transcardiac perfusion with 50 ml 0.9% NaCl solution. The trachea and primary bronchi were removed, blotted dry and weighed. Dye quantitation was performed spectrophotometrically (620 nm) after extracting tissues in formamide for 24 hr at 50°C. Values were subtracted from background (dye only, no agonist). ED50 (dose of compound which inhibits SP-induced plasma protein extravasation by 50%) was calculated from linear regression analysis.
# Values are mean (95% confidence limits). Compounds were injected intravenously 2 min prior to SP administration. ED50 values are based on at least 3 doses; at least 4 animals were used per dose.
# [2] = system: NKA-induced respiratory effects; experiment: Antagonism of NKA aerosol induced respiratory effects in conscious guinea pigs (whole body plethysmography); type: in vivo, guinea pig; conditions: 20 min prior to NKA aerosol (0.05%); for DYSPNEA ONSET: mean and SEM
# Method: (§1) In vivo experiments were performed using male Duncan Hartley guinea pigs (250-350g). Changes in conscious breathing patterns were monitored in four animals simultaneously using modified whole body plethysmography consisting of four small plexiglass boxes each connected to a reference box via Validyne DP 45-16 differential pressure transducers. The 4 boxes were equipped with an air supply line (also used for aerosol delivery) and an exhaust air line. Supply and exhaust lines were of the same length and narrow bore and arose from a common supply chamber and vented to a common exhaust chamber. This system was used to ensure that fluctuations in supply air and atmospheric pressure would remain in phase and be eliminated from the net signal by the differential pressure transducers. The analog pressure signals were digitalized via a Data Translation DT2821 A to D board. Data were collected at a rate of 100 samples/second/animal. Each cycle of pressure change was analyzed using the following parameters: rising and falling slope determined between minimum and maximum pressures, the ratio of rising over falling slope, and the magnitude of the change between initial trough pressure and peak cycle pressure. Using these values (and observing the animals) the pressure cycles were characterized into normal breaths, forced exhalations (apparent by abdominal heaving), significant respiratory events (SREs; usually coughs, less often sneezes or gasps which were characterized by transient, extremely large pressure increases which were distinguishable from noise) and movement/noise with a PCAT 286 running a System V UNIX operating system. Dyspnea was defined as a significant, sustained increase in plethysmograph pressure which was associated with an observable shift to labored breathing in the animal.
# (§2) During the course of a typical experiment in which airway responsiveness to various bronchoconstricting agents was examined, aerosols were delivered for 19 min (0.33 ml/min) using a DeVilbiss Ultraneb 99 ultrasonic nebulizer and animals monitored during this time. Prior to nebulization, 1 min of resting breathing was collected to establish a baseline pressure. […] The vehicle for nebulization of all bronchoconstrictive agents was phosphate buffered saline (pH 7.4) which elicited no respiratory effects itself. Putative tachykinin antagonists were administered either (i.v.) 20 min prior to onset of aerosol exposure or orally 1 hour prior to onset (to guinea pigs after an overnight fast).
# Table 6 illustrates the effects of the compounds of Example 3; Example 20A; and Example 5A on respiratory effects induced by NKA aerosol. […] These effects were dose dependent i.e. the higher the dose of compound, the greater attenuation of NKA-mediated effects. […]
# Compounds were administered 20 min prior to initiation of NKA aerosol (0.05%). Values for each treatment represent the mean and SEM of data from 5-37 animals per dose.
# [3] = system: capsaicin-induced respiratory effects; experiment: Antagonism of capsaicin aerosol induced respiratory effects in conscious guinea pigs (whole body plethysmography); type: in vivo, guinea pig; conditions: for DYSPNEA ONSET / MAXIMUM PRESSURE INCREASE (mmH2O) / SRE NUMBER*: mean and SEM; for SRE NUMBER*: number of coughs/gasps during 19 min exposure
# Method: as §1, §2
# Capsaicin aerosol is known to promote release of the tachykinins SP and NKA from sensory nerves in the airways of guinea pigs which may then act upon NK1 and NK2 receptors, respectively to elicit respiratory effects. […]
# (§3) Values are mean and SEM of data derived from number of animals indicated in parenthesis. Putative tachykinin antagonists were administered intravenously 20 min prior to initiation of capsaicin aerosol (0.001%). *SRE number indicates the number of coughs/gasps which occurred during the 19 min capsaicin exposure period.
# as §3, with “by oral gavage 1 hr” for “intravenously 20 min”
# [4] = 10 mg/kg intravenously 20 min prior to capsaicin aerosol (0.001%)
# [5] = 25 mg/kg by oral gavage 1 hr prior to capsaicin aerosol (0.001%)
# [6] = 50 mg/kg by oral gavage 1 hr prior to capsaicin aerosol (0.001%)
# [7] = 100 mg/kg by oral gavage 1 hr prior to capsaicin aerosol (0.001%)
compound,measurement,setting,value
"COc1cc(C(=O)N2CCC(CCN3CCC(C(N)=O)(c4ccccc4)CC3)(c3ccc(Cl)c(Cl)c3)C2)cc(OC)c1OC (stereo not shown) [Example 3, 1-[2-[3-(3,4-dichloro-phenyl)-1-(3,4,5-trimethoxy-benzoyl)-pyrrolidin-3-yl]-ethyl]-4-phenyl-piperidine-4-carboxylic acid amide]",antagonism of SP-induced plasma protein extravasation in guinea pig trachea,[1],dose related antagonism
same,DYSPNEA INCIDENCE,[2]; 5 mg/kg,86% (6/7)
same,DYSPNEA ONSET,[2]; 5 mg/kg,394 ± 32 s
same,DYSPNEA INCIDENCE,[2]; 10 mg/kg,60% (6/10)
same,DYSPNEA ONSET,[2]; 10 mg/kg,801 ± 104 s
"COc1cccc(OC)c1C(=O)N1CCC(CCN2CCC(C(N)=O)(c3ccccc3)CC2)(c2ccc(Cl)c(Cl)c2)C1 (racemic) [Example 5A, 1-[2-[3-(3,4-dichloro-phenyl-3-yl)-1-(2,6-dimethoxy-benzoyl)-pyrrolidin-3-yl]-ethyl]-4-phenyl-piperidine-4-carboxylic acid amide hydrochloride]",DYSPNEA INCIDENCE,[2]; 5 mg/kg,60% (3/5)
same,DYSPNEA ONSET,[2]; 5 mg/kg,654 ± 37 s
same,DYSPNEA INCIDENCE,[2]; 10 mg/kg,54% (7/13)
same,DYSPNEA ONSET,[2]; 10 mg/kg,608 ± 65 s
"COc1cc(C(=O)N2CCC(CCN3CCC(C(N)=O)(c4ccccc4)CC3)(c3ccc(Cl)c(Cl)c3)C2)cc(OC)c1OC (racemic) [Example 3A, 1-[2-[3-(3,4-dichloro-phenyl-3-yl)-1-(3,4,5-trimethoxy-benzoyl)-pyrrolidin-3-yl]-ethyl] -4-phenyl-piperidine-4-carboxylic acid amide hydrochloride]",DYSPNEA INCIDENCE,[3]; [4],89% (7/8)
same,DYSPNEA ONSET,[3]; [4],480 ± 80 s
same,MAXIMUM PRESSURE INCREASE (mmH2O),[3]; [4],0.83 ± 0.18 mmH2O
same,SRE NUMBER*,[3]; [4],8.50 ± 1.9
same,DYSPNEA INCIDENCE,[3]; [5],80% (8/10)
same,DYSPNEA ONSET,[3]; [5],424 ± 120 s
same,MAXIMUM PRESSURE INCREASE (mmH2O),[3]; [5],0.7 ± 0.2 mmH2O
same,SRE NUMBER*,[3]; [5],4.6 ± 1.0
same,DYSPNEA INCIDENCE,[3]; [6],70% (7/10)
same,DYSPNEA ONSET,[3]; [6],434 ± 152 s
same,MAXIMUM PRESSURE INCREASE (mmH2O),[3]; [6],0.4 ± 0.1 mmH2O
same,SRE NUMBER*,[3]; [6],2.8 ± 0.8
same,DYSPNEA INCIDENCE,[3]; [7],50% (5/10)
same,DYSPNEA ONSET,[3]; [7],360 ± 120 s
same,MAXIMUM PRESSURE INCREASE (mmH2O),[3]; [7],0.4 ± 0.1 mmH2O
same,SRE NUMBER*,[3]; [7],2.1 ± 0.5
